# In patent US20080242688A1, “Method 741” (ASTRAZENECA AB, priority 2007, published 2008):
# “And” between values parts separate entries of the source, which are not always exact repeats. Identical values can stand only once.
# Assay: Multiple dose PK/TK, dog
# Format: in vivo
# Design: AUC/dose: unit not given beside the values
# Source text: This section provides a summary of the pharmacokinetic and metabolism properties of AZD0328 derived from in vivo studies. […] The derived PK/TK parameters from these studies are presented in Table 4 for single dose studies (DMR4, 0619LR, 20030191PCR, DMO16, DMB10, DMW12, 50190, 0190DD and 03.330/1), and are presented in Table 5 multiple dose PK/TK studies (DMR4, 0612AR, DMB15, 50190, 0190DD and 0295AD).
# [1] = both sexes, dog, in vivo, po, 34.6 mg/kg, dog 2F+2M, 0190DD, 34.6 mg/kg (160 μmol/kg) split in two 6 h apart, capsules fasted, day 1
# [2] = both sexes, dog, in vivo, po, 34.6 mg/kg, dog 2F+2M, 0190DD, 34.6 mg/kg (160 μmol/kg) split in two 6 h apart, capsules fasted, day 7
# [3] = both sexes, dog, in vivo, po, 34.6 mg/kg, dog 2F+2M, 0190DD, 34.6 mg/kg (160 μmol/kg) split in two 6 h apart, solution fasted, day 1
# [4] = both sexes, dog, in vivo, po, 34.6 mg/kg, dog 2F+2M, 0190DD, 34.6 mg/kg (160 μmol/kg) split in two 6 h apart, solution fasted, day 7
# [5] = both sexes, dog, in vivo, po, 138 mg/kg, dog 2F+2M, 0190DD, 138 mg/kg (640 μmol/kg) split in two 6 h apart, capsules fed, day 1
# [6] = both sexes, dog, in vivo, po, 138 mg/kg, dog 2F+2M, 0190DD, 138 mg/kg (640 μmol/kg) split in two 6 h apart, capsules fed, day 7
# [7] = female, Beagle, dog, in vivo, po, 8.65 mg/kg, dog 3F, 0295AD, 8.65 mg/kg (40 μmol/kg) split in two 6 h apart, capsules fed, day 7
# [8] = female, Beagle, dog, in vivo, po, 8.65 mg/kg, dog 3F, 0295AD, 8.65 mg/kg (40 μmol/kg) split in two 6 h apart, capsules fed, day 35
# [9] = female, Beagle, dog, in vivo, po, 17.3 mg/kg, dog 3F, 0295AD, 17.3 mg/kg (80 μmol/kg) split in two 6 h apart, capsules fed, day 7
structure (smiles),measurement,setting,value
"c1cnc2c(c1)C[C@@]1(CN3CCC1CC3)O2 [AZD0328, (R)-Spiro[1-azabicyclo[2.2.2]octane-3,2′(3′H)-furo[2,3-b]pyridine]]",AUC,[1],4430 ng·h/mL and 20.5 µM·h
same,Cmax,[1],694 ng/mL and 3.21 µM
same,Tmax,[1],1 to 3 h
same,AUC,[2],6970 ng·h/mL and 32.2 µM·h
same,Cmax,[2],2120 ng/mL and 9.79 µM
same,Tmax,[2],1 h
same,AUC,[3],4890 ng·h/mL and 22.6 µM·h
same,Cmax,[3],1130 ng/mL and 5.2 µM
same,Tmax,[3],0.5 h
same,AUC,[4],7200 ng·h/mL and 33.3 µM·h
same,Cmax,[4],1560 ng/mL and 7.22 µM
same,Tmax,[4],0.5 to 1 h
same,AUC,[5],11900 ng·h/mL and 55 µM·h
same,Cmax,[5],1520 ng/mL and 7.04 µM
same,Tmax,[5],1 to 6 h
same,AUC,[6],7160 ng·h/mL and 33.1 µM·h
same,Cmax,[6],1360 ng/mL and 6.27 µM
same,Tmax,[6],0.5 to 6 h
same,AUC/dose,"dog 2F+2M, 0190DD, 34.6 mg/kg (160 μmol/kg) split in two 6 h apart, capsules fasted, day 1",0.128 ± 0.087
same,AUC/dose,"dog 2F+2M, 0190DD, 34.6 mg/kg (160 μmol/kg) split in two 6 h apart, solution fasted, day 1",0.141 ± 0.014
same,AUC/dose,"dog 2F+2M, 0190DD, 34.6 mg/kg (160 μmol/kg) split in two 6 h apart, solution fasted, day 7",0.208 ± 0.088
same,AUC/dose,"dog 2F+2M, 0190DD, 138 mg/kg (640 μmol/kg) split in two 6 h apart, capsules fed, day 1",0.0859 ± 0.0530
same,AUC/dose,"dog 2F+2M, 0190DD, 138 mg/kg (640 μmol/kg) split in two 6 h apart, capsules fed, day 7",0.0517 ± 0.0206
same,AUC/dose,"dog 3F, 0295AD, 8.65 mg/kg (40 μmol/kg) split in two 6 h apart, capsules fed, day 7",0.113 ± 0.038
same,AUC/dose,"dog 3F, 0295AD, 8.65 mg/kg (40 μmol/kg) split in two 6 h apart, capsules fed, day 35",0.107 ± 0.017
same,AUC/dose,"dog 3F, 0295AD, 17.3 mg/kg (80 μmol/kg) split in two 6 h apart, capsules fed, day 7",0.246 ± 0.092
same,AUC/dose,"dog 3F, 0295AD, 17.3 mg/kg (80 μmol/kg) split in two 6 h apart, capsules fed, day 35",0.233 ± 0.049
same,AUC/dose,"dog 3M, 0295AD, 8.65 mg/kg (40 μmol/kg) split in two 6 h apart, capsules fed, day 7",0.100 ± 0.051
same,AUC/dose,"dog 3M, 0295AD, 8.65 mg/kg (40 μmol/kg) split in two 6 h apart, capsules fed, day 35",0.145 ± 0.039
same,AUC/dose,"dog 3M, 0295AD, 17.3 mg/kg (80 μmol/kg) split in two 6 h apart, capsules fed, day 7",0.223 ± 0.047
same,AUC/dose,"dog 3M, 0295AD, 17.3 mg/kg (80 μmol/kg) split in two 6 h apart, capsules fed, day 35",0.196 ± 0.008
same,AUC/dose,"dog 6F, 0295AD, 26.0 mg/kg (120 μmol/kg) split into 17.3 and 8.7 mg/kg 6 h apart, capsules fed, day 35",0.133 ± 0.036
same,AUC/dose,"dog 6M, 0295AD, 26.0 mg/kg (120 μmol/kg) split into 17.3 and 8.7 mg/kg 6 h apart, capsules fed, day 35",0.174 ± 0.029
same,AUC/dose,"dog 6M, 0295AD, 34.6 mg/kg (160 μmol/kg) split in two 6 h apart, capsules fed, day 7",0.152 ± 0.075
same,AUC,[7],981 ng·h/mL and 4.53 µM·h
same,Cmax,[7],302 ng/mL and 1.39 µM
same,Tmax,[7],1 to 7 h
same,AUC,[8],924 ng·h/mL and 4.27 µM·h
same,Cmax,[8],270 ng/mL and 1.25 µM
same,Tmax,[8],1 to 9 h
same,AUC at 7 day,[9],2130 ng·h/mL and 9.83 µM·h
same,Cmax at 7 day,[9],850 ng/mL and 3.93 µM
